Results from patent US9783537B2, “3-(4-ethylnylphenyl) pyridopyrimidinone compounds and process for preparation thereof useful as potential anticancer agents” (Council of Scientific & Industrial Research, priority 2013, dated 2017).
Read-outs that look alike come from different tables or passages of the source.

Columns and labels:
CCRF-CEM = assay: SRB 48 h growth assay, Leukemia CCRF-CEM; format: cell-based, human
A549/ATCC = assay: SRB 48 h growth assay, Non-small Cell Lung A549/ATCC; format: cell-based, human
HOP-92 = assay: SRB 48 h growth assay, Non-small Cell Lung HOP-92; format: cell-based, human; conditions: HOP-92, Non-small Cell Lung
NCI-H226 = assay: SRB 48 h growth assay, Non-small Cell Lung NCI-H226; format: cell-based, human
NCI-H23 = assay: SRB 48 h growth assay, Non-small Cell Lung NCI-H23; format: cell-based, human
HCC-2998 = assay: SRB 48 h growth assay, Colon HCC-2998; format: cell-based, human; conditions: HCC-2998, Colon
HCT-116 = assay: SRB 48 h growth assay, Colon HCT-116; format: cell-based, human; conditions: HCT-116, Colon
SNB-75 = assay: SRB 48 h growth assay, CNS SNB-75; format: cell-based, human; conditions: SNB-75, CNS
U251 = assay: SRB 48 h growth assay, CNS U251; format: cell-based, human
MALME-3M = assay: SRB 48 h growth assay, Melanoma MALME-3M; format: cell-based, human
MDA-MB-435 = assay: SRB 48 h growth assay, Melanoma MDA-MB-435; format: cell-based, human; conditions: MDA-MB-435, Melanoma
SK-MEL-2 = assay: SRB 48 h growth assay, Melanoma SK-MEL-2; format: cell-based, human; conditions: SK-MEL-2, Melanoma
UACC-257 = assay: SRB 48 h growth assay, Melanoma UACC-257; format: cell-based, human; conditions: UACC-257, Melanoma
UACC-62 = assay: SRB 48 h growth assay, Melanoma UACC-62; format: cell-based, human; conditions: UACC-62, Melanoma
OVCAR-3 = assay: SRB 48 h growth assay, Ovarian OVCAR-3; format: cell-based, human; conditions: OVCAR-3, Ovarian
OVCAR-5 = assay: SRB 48 h growth assay, Ovarian OVCAR-5; format: cell-based, human; conditions: OVCAR-5, Ovarian
NCI/ADR-RES = assay: SRB 48 h growth assay, Ovarian NCI/ADR-RES; format: cell-based, human
A498 = assay: SRB 48 h growth assay, Renal A498; format: cell-based, human
ACHN = assay: SRB 48 h growth assay, Renal ACHN; format: cell-based, human
CAKI-1 = assay: SRB 48 h growth assay, Renal CAKI-1; format: cell-based, human; conditions: CAKI-1, Renal
PC-3 = assay: SRB 48 h growth assay, Prostate PC-3; format: cell-based, human; conditions: PC-3, Prostate
DU-145 = assay: SRB 48 h growth assay, Prostate DU-145; format: cell-based, human; conditions: DU-145, Prostate
[1] = system: six leukemia cancer cell lines (CCRF-CEM, HL-60, K-562, MOLT-4, SR and RPMI-8226); assay: in vitro anticancer activity, leukemia panel; format: cell-based; conditions: Homo sapiens, exposure at least 48 h, read-out: GI50, range over panel
[2] = system: six CNS cancer cell line (SF-268, SF-295, SF-539, SNB-19, SNB-75 and U251); assay: in vitro anticancer activity, CNS panel; format: cell-based; conditions: Homo sapiens; six CNS cancer cell lines, exposure at least 48 h; read-out: GI50, range over panel
[3] = system: two prostate cancer cell line (PC-3, DU-145); assay: in vitro anticancer activity, prostate panel; format: cell-based; conditions: Homo sapiens; two prostate cancer cell lines, exposure at least 48 h; read-out: GI50, range over panel
[4] = system: six breast cancer cell line (MCF-7, MDA-MB-231/ATCC, HS 578T, TD-47D, MDA-MB-468 and BT-549); assay: in vitro anticancer activity, breast panel; format: cell-based; conditions: Homo sapiens; six breast cancer cell lines, exposure at least 48 h; read-out: GI50, range over panel
[5] = Homo sapiens, read-out: Growth Inhibition GI50
[6] = Homo sapiens, read-out: Log10 GI50 (converted)
[7] = Homo sapiens, read-out: Log10 LC50 (converted)

`C#Cc1ccc(-n2c(/C=C/c3ccc(O)cc3)nc3ncccc3c2=O)cc1` [4b, (E)-3-(4-Ethynylphenyl)-2-(4-hydroxystyryl)pyrido[2,3-d]pyrimidin-4(3H)-one] was tested, and the “Log10 TGI50” value (CCRF-CEM) was >−4.00, the CC50 (CCRF-CEM; Homo sapiens, CCKF-CEM, read-out: Log10 LC50 (converted)) was > 100 µM and the GI50 (CCRF-CEM; [5]) was 3.3 µM. The GI50 (CCRF-CEM; [6]) was 3.31 µM, the “Log10 TGI50” value (A549/ATCC) was >−4.00 and the GI50 (A549/ATCC; [5]) was 4.74 µM. The GI50 (A549/ATCC; [6]) was 4.79 µM, the CC50 (A549/ATCC; [7]) was > 100 µM and the “Log10 TGI50” value (HOP-92) was −4.77. The GI50 (HOP-92; [5]) was 1.8 µM, the GI50 (HOP-92; [6]) was 1.82 µM and the CC50 (HOP-92; [7]) was > 100 µM. The “Log10 TGI50” value (NCI-H226) was −4.88, the GI50 (NCI-H226; [5]) was 2.58 µM and the GI50 (NCI-H226; [6]) was 2.57 µM. The LC50 (NCI-H226; [7]) was > 100 µM, the “Log10 TGI50” value (NCI-H23) was >−4.00 and the GI50 (NCI-H23; [5]) was 5.52 µM. For the same compound, the GI50 (NCI-H23; [6]) was 5.5 µM, the LC50 (NCI-H23; [7]) was > 100 µM and the “Log10 TGI50” value (HCC-2998) was >−4.00. For the same compound, the GI50 (HCC-2998; [5]) was 25.7 µM, the GI50 (HCC-2998; [6]) was 25.7 µM and the CC50 (HCC-2998; [7]) was > 100 µM. The “Log10 TGI50” value (HCT-116) was >−4.00, the GI50 (HCT-116; [5]) was 5.07 µM and the GI50 (HCT-116; [6]) was 5.01 µM. The CC50 (HCT-116; [7]) was > 100 µM, the GI50 (SNB-75; [5]) was 0.94 µM and the GI50 (SNB-75; [6]) was 0.955 µM. For the same compound, the CC50 (SNB-75; [7]) was > 100 µM, the “Log10 TGI50” value (SNB-75) was −4.49 and the “Log10 TGI50” value (U251) was >−4.00. For the same compound, the GI50 (U251; Homo sapiens, U-251, read-out: Growth Inhibition GI50) was 4.02 µM, the GI50 (U251; Homo sapiens, U-251, read-out: Log10 GI50 (converted)) was 3.98 µM and the CC50 (U251; Homo sapiens, U-251, read-out: Log10 LC50 (converted)) was > 100 µM. For the same compound, the “Log10 TGI50” value (MALME-3M) was >−4.00, the GI50 (MALME-3M; [5]) was 5.13 µM and the GI50 (MALME-3M; [6]) was 5.13 µM. The CC50 (MALME-3M; [7]) was > 100 µM, the GI50 (MDA-MB-435; [5]) was 1.6 µM and the GI50 (MDA-MB-435; [6]) was 1.58 µM. The CC50 (MDA-MB-435; [7]) was > 100 µM, the “Log10 TGI50” value (MDA-MB-435) was −5.39 and the GI50 (SK-MEL-2; [5]) was 3.95 µM. For the same compound, the GI50 (SK-MEL-2; [6]) was 3.98 µM, the CC50 (SK-MEL-2; [7]) was > 100 µM and the “Log10 TGI50” value (SK-MEL-2) was −4.39. The GI50 (UACC-257; [5]) was 6.3 µM, the GI50 (UACC-257; [6]) was 6.31 µM and the CC50 (UACC-257; [7]) was > 100 µM. The “Log10 TGI50” value (UACC-257) was >−4.00, the GI50 (UACC-62; [5]) was 4.01 µM and the GI50 (UACC-62; [6]) was 3.98 µM. The CC50 (UACC-62; [7]) was > 100 µM, the “Log10 TGI50” value (UACC-62) was >−4.00 and the GI50 (OVCAR-3; [5]) was 2.41 µM. The GI50 (OVCAR-3; [6]) was 2.4 µM, the CC50 (OVCAR-3; [7]) was > 72.4 µM and the “Log10 TGI50” value (OVCAR-3) was −5.24. For the same compound, the GI50 (OVCAR-5; [5]) was 32.3 µM, the GI50 (OVCAR-5; [6]) was 32.4 µM and the CC50 (OVCAR-5; [7]) was > 100 µM. For the same compound, the “Log10 TGI50” value (OVCAR-5) was >−4.00, the “Log10 TGI50” value (NCI/ADR-RES) was >−4.00 and the GI50 (NCI/ADR-RES; [5]) was 5.28 µM. The GI50 (NCI/ADR-RES; [6]) was 5.25 µM, the CC50 (NCI/ADR-RES; [7]) was > 100 µM and the “Log10 TGI50” value (A498) was −5.16. The GI50 (A498; [5]) was 2.48 µM, the GI50 (A498; [6]) was 2.45 µM and the CC50 (A498; [7]) was > 100 µM. The “Log10 TGI50” value (ACHN) was >−4.00, the GI50 (ACHN; [5]) was 6.31 µM and the GI50 (ACHN; [6]) was 6.31 µM. For the same compound, the CC50 (ACHN; [7]) was > 100 µM, the “Log10 TGI50” value (CAKI-1) was >−4.00 and the GI50 (CAKI-1; [5]) was 4.15 µM. For the same compound, the GI50 (CAKI-1; [6]) was 4.17 µM, the CC50 (CAKI-1; [7]) was > 100 µM and the GI50 (PC-3; [5]) was 3.87 µM. For the same compound, the GI50 (PC-3; [6]) was 3.89 µM, the CC50 (PC-3; [7]) was > 100 µM and the “Log10 TGI50” value (PC-3) was −4.32. For the same compound, the “Log10 TGI50” value (DU-145) was −4.12, the GI50 (DU-145; [5]) was 4.1 µM and the GI50 (DU-145; [6]) was 4.07 µM. The CC50 (DU-145; [7]) was > 100 µM, the GI50 [1] was 3.58 to 5.55 µM and the GI50 [2] was 3.88 to 16.2 µM. For the same compound, the GI50 [3] was 3.96 to 5.36 µM and the GI50 [4] was 2.83 to 5.85 µM.
